# Results as given in ChEMBL document CHEMBL3638781, “Inhibitors of Œ=-secretase” (2015).
# Molecular target: Beta-secretase 1 (Homo sapiens, UniProt P56817)
# Test: Fluorescence Quench Assay: The inhibitory activity of compounds was assessed by a fluorescence quench assay of BACE1 activity using commercially available substrate HiLyte Fluor 488-[…](QXLT 520)-OH (SEQ ID NO:1) AnaSpec, San Jose, Calif.) and truncated human beta-secretase, BACE1 (amino acids 1-454) fused to a myc-his tag and secreted from HEK293/BACEect. cells into OptiMEM (Invitrogen). The substrate was dissolved at 1 mg/ml in DMSO.The assay was performed in the presence of OptiMEM (supernatant collected over 24 h and cleared from cellular debris by centrifugation) containing the ectodomain of BACE1, 25 ul water containing the desired 2-fold concentration of test compound and 2% DMSO, 1 uM substrate peptide, 20 mM NaOAc, pH 4.4, and 0.04% Triton-X100 in a total assay volume of 50 ul in a 384 well plate. In general, 25 ul of compound dilution were given to the plate followed by the addition of 10 ul of BACE1 containing OptiMEM diluted 1:10 in water.
# Beta-secretase 1, sequence (P56817 whole entry, the tested form may be a part): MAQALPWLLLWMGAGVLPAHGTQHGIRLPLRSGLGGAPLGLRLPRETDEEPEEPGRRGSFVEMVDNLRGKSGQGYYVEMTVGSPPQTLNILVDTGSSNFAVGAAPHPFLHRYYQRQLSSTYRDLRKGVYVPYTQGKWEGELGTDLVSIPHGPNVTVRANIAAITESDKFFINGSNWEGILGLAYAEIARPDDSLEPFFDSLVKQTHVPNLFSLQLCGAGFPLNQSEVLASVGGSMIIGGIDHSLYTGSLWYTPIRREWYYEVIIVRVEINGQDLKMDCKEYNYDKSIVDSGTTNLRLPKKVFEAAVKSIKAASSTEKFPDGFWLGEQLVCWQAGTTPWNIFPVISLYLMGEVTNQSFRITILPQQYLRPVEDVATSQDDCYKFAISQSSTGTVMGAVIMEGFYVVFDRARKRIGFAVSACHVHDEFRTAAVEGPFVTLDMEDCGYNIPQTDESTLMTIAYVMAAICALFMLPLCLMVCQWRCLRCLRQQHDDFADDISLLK
smiles,measurement,value
CO[C@H]1CC[C@@]2(Cc3ccc(C#N)cc3[C@]23N=C(N)N(Cc2ncccn2)C3=O)C[C@@H]1C,IC50,11 nM
